# Data reported in patent publication US6355799B1, “Substituted benzene compounds, process for their preparation, and herbicidal and defoliant compositions containing them” (ISK Americas Incorporated, priority 1997, dated 2002).
# Tests used:
# Assay type in all cases: in vivo
# [1] = system: redroot pigweed (Amaranthus retroflexus, AMARE); assay: Pre-emerge test, greenhouse herbicide activity screening; conditions: rating scale 0-100, 14 days after application
# Outline: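 Compounds in acetone were track-sprayed at 15-1000 g ai/ha (187 l/ha) on sandy loam pots: pre-emerge one day after seeding, post-emerge at 2-3 leaf stage with 0.25% v/v non-ionic surfactant. Phytotoxicity was rated 14 days later on a 0 (no damage) to 100 (complete death) scale.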
# [2] = system: barnyardgrass (Echinochloa crus-galli, ECHCG); assay: as above; conditions: rating scale 0-100, 14 days after application
# Outline: (§1)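 Fourteen days after spraying, crop and weed injury was graded visually from 0, no effect, to 100, every plant dead. Test substances were dissolved in acetone and applied at 15–1000 g ai/ha with a flat-fan nozzle. Application was either pre-emergence, one day after sowing, or post-emergence at the 2–3 leaf stage.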
# [3] = system: green foxtail (Setaria viridis, SETVI); assay: as above; conditions: rating scale 0-100, 14 days after application
# Outline: as §1
# [4] = system: ivyleaf morningglory (Ipomoea hederacea, IPOHE); assay: as above; conditions: rating scale 0-100, 14 days after application
# Outline: as §1
# [5] = system: johnsongrass (Sorghum halepense, SORHA); assay: as above; conditions: rating scale 0-100, 14 days after application
# Outline: as §1
# [6] = system: lambsquarters (Chenopodium album, CHEAL); assay: as above; conditions: rating scale 0-100, 14 days after application
# Outline: as §1
# [7] = system: large crabgrass (Digitaria sanguinalis, DIGSA); assay: as above; conditions: rating scale 0-100, 14 days after application
# Outline: as §1
# [8] = system: sicklepod (Cassia obtusifolia, CASOB); assay: as above; conditions: rating scale 0-100, 14 days after application
# Outline: as §1
# [9] = system: velvetleaf (Abutilon theophrasti, ABUTH); assay: as above; conditions: rating scale 0-100, 14 days after application
# Outline: as §1
# [10] = system: field corn (Zea mays L., var. Dekalb 535, CORN); assay: Pre-emerge test, crop safety; conditions: rating scale 0-100, 14 days after application
# Outline: as §1
# [11] = system: upland rice (Oryza sp., var. Tebonnet, RICE); assay: Pre-emerge test, crop safety; conditions: rating scale 0-100, 14 days after application
# Outline: as §1
# [12] = system: barnyardgrass (Echinochloa crus-galli, ECHCG); assay: Post-emerge test, greenhouse herbicide activity screening; conditions: rating scale 0-100 (0 no damage, 100 complete death), 14 days after application
# Outline: (§2)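 Plants grown in 10 cm pots of sandy loam mix received acetone-dissolved compounds through a moving flat-fan nozzle. Doses ranged from 15 to 1000 g ai/ha. Pre-emerge pots were seeded one day earlier, post-emerge pots 8–21 days earlier. Fourteen days on, each pot was graded 0–100 for damage.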
# [13] = system: common ragweed (Ambrosia artemisizfolia L., AMBEL); assay: as above; conditions: rating scale 0-100 (0 no damage, 100 complete death), 14 days after application
# Outline: as §2
# [14] = system: green foxtail (Setaria viridis, SETVI); assay: as above; conditions: rating scale 0-100 (0 no damage, 100 complete death), 14 days after application
# Outline: as §2
# [15] = system: ivyleaf morningglory (Ipomoea hederacea, IPOHE); assay: as above; conditions: rating scale 0-100 (0 no damage, 100 complete death), 14 days after application
# Outline: as §2
# [16] = system: johnsongrass (Sorghum halepense, SORHA); assay: as above; conditions: rating scale 0-100 (0 no damage, 100 complete death), 14 days after application
# Outline: as §2
# [17] = system: lambsquarters (Chenopodium album, CHEAL); assay: as above; conditions: rating scale 0-100 (0 no damage, 100 complete death), 14 days after application
# Outline: as §2
# [18] = system: large crabgrass (Digitaria sanguinalis, DIGSA); assay: as above; conditions: rating scale 0-100 (0 no damage, 100 complete death), 14 days after application
# Outline: as §2
# [19] = system: redroot pigweed (Amaranthus retroflexus, AMARE); assay: as above; conditions: rating scale 0-100 (0 no damage, 100 complete death), 14 days after application
# Outline: as §2
# [20] = system: sicklepod (Cassia obtusifolia, CASOB); assay: as above; conditions: rating scale 0-100 (0 no damage, 100 complete death), 14 days after application
# Outline: as §2
# [21] = system: velvetleaf (Abutilon theophrasti, ABUTH); assay: as above; conditions: rating scale 0-100 (0 no damage, 100 complete death), 14 days after application
# Outline: as §2
# [22] = system: field corn (Zea mays L., var. Dekalb 535, CORN); assay: Post-emerge test, crop safety; conditions: rating scale 0-100 (0 no damage, 100 complete death), 14 days after application
# Outline: as §1
# [23] = system: upland rice (Oryza sp., var. Tebonnet, RICE); assay: Post-emerge test, crop safety; conditions: rating scale 0-100 (0 no damage, 100 complete death), 14 days after application
# Outline: as §1
smiles,measurement,setting,value
"COc1c(Cl)cc(F)c(-n2c(=O)cc(C(F)(F)F)n(C)c2=O)c1CC(Cl)C(=O)OCC(F)(F)C(F)(F)C(F)(F)F (single isomer, unassigned) [14-23]","Pre-emerge herbicidal activity, phytotoxicity rating AMARE",[1]; 63 g ai/ha,95
same,"Pre-emerge herbicidal activity, phytotoxicity rating AMARE",[1]; 250 g ai/ha,100
same,"Pre-emerge herbicidal activity, phytotoxicity rating ECHCG",[2]; 63 g ai/ha,10
same,"Pre-emerge herbicidal activity, phytotoxicity rating ECHCG",[2]; 250 g ai/ha,30
same,"Pre-emerge herbicidal activity, phytotoxicity rating SETVI",[3]; 63 g ai/ha,0
same,"Pre-emerge herbicidal activity, phytotoxicity rating SETVI",[3]; 250 g ai/ha,40
same,"Pre-emerge herbicidal activity, phytotoxicity rating IPOHE",[4]; 63 g ai/ha,0
same,"Pre-emerge herbicidal activity, phytotoxicity rating IPOHE",[4]; 250 g ai/ha,30
same,"Pre-emerge herbicidal activity, phytotoxicity rating SORHA",[5]; 63 g ai/ha,0
same,"Pre-emerge herbicidal activity, phytotoxicity rating SORHA",[5]; 250 g ai/ha,80
same,"Pre-emerge herbicidal activity, phytotoxicity rating CHEAL",[6]; 63 g ai/ha,0
same,"Pre-emerge herbicidal activity, phytotoxicity rating CHEAL",[6]; 250 g ai/ha,90
same,"Pre-emerge herbicidal activity, phytotoxicity rating DIGSA",[7]; 63 g ai/ha,30
same,"Pre-emerge herbicidal activity, phytotoxicity rating DIGSA",[7]; 250 g ai/ha,90
same,"Pre-emerge herbicidal activity, phytotoxicity rating CASOB",[8]; 63 g ai/ha,0
same,"Pre-emerge herbicidal activity, phytotoxicity rating CASOB",[8]; 250 g ai/ha,0
same,"Pre-emerge herbicidal activity, phytotoxicity rating ABUTH",[9]; 63 g ai/ha,0
same,"Pre-emerge herbicidal activity, phytotoxicity rating ABUTH",[9]; 250 g ai/ha,80
same,"Pre-emerge phytotoxicity rating, crop damage CORN",[10]; 63 g ai/ha,0
same,"Pre-emerge phytotoxicity rating, crop damage CORN",[10]; 250 g ai/ha,0
same,"Pre-emerge phytotoxicity rating, crop damage RICE",[11]; 63 g ai/ha,0
same,"Pre-emerge phytotoxicity rating, crop damage RICE",[11]; 250 g ai/ha,0
same,"Post-emerge Herbicidal Activity, phytotoxicity rating ECHCG",[12]; Rate 63 g ai/ha,100
same,"Post-emerge Herbicidal Activity, phytotoxicity rating ECHCG",[12]; Rate 250 g ai/ha,100
same,"Post-emerge Herbicidal Activity, phytotoxicity rating AMBEL",[13]; Rate 63 g ai/ha,50
same,"Post-emerge Herbicidal Activity, phytotoxicity rating AMBEL",[13]; Rate 250 g ai/ha,40
same,"Post-emerge Herbicidal Activity, phytotoxicity rating SETVI",[14]; Rate 63 g ai/ha,60
same,"Post-emerge Herbicidal Activity, phytotoxicity rating SETVI",[14]; Rate 250 g ai/ha,70
same,"Post-emerge Herbicidal Activity, phytotoxicity rating IPOHE",[15]; Rate 63 g ai/ha,80
same,"Post-emerge Herbicidal Activity, phytotoxicity rating IPOHE",[15]; Rate 250 g ai/ha,95
same,"Post-emerge Herbicidal Activity, phytotoxicity rating SORHA",[16]; Rate 63 g ai/ha,40
same,"Post-emerge Herbicidal Activity, phytotoxicity rating SORHA",[16]; Rate 250 g ai/ha,50
same,"Post-emerge Herbicidal Activity, phytotoxicity rating CHEAL",[17]; Rate 63 g ai/ha,50
same,"Post-emerge Herbicidal Activity, phytotoxicity rating CHEAL",[17]; Rate 250 g ai/ha,80
same,"Post-emerge Herbicidal Activity, phytotoxicity rating DIGSA",[18]; Rate 63 g ai/ha,50
same,"Post-emerge Herbicidal Activity, phytotoxicity rating DIGSA",[18]; Rate 250 g ai/ha,95
same,"Post-emerge Herbicidal Activity, phytotoxicity rating AMARE",[19]; Rate 63 g ai/ha,50
same,"Post-emerge Herbicidal Activity, phytotoxicity rating AMARE",[19]; Rate 250 g ai/ha,100
same,"Post-emerge Herbicidal Activity, phytotoxicity rating CASOB",[20]; Rate 63 g ai/ha,20
same,"Post-emerge Herbicidal Activity, phytotoxicity rating CASOB",[20]; Rate 250 g ai/ha,70
same,"Post-emerge Herbicidal Activity, phytotoxicity rating ABUTH",[21]; Rate 63 g ai/ha,50
same,"Post-emerge Herbicidal Activity, phytotoxicity rating ABUTH",[21]; Rate 250 g ai/ha,90
same,Post-emerge phytotoxicity rating CORN (crop damage),[22]; Rate 63 g ai/ha,0
same,Post-emerge phytotoxicity rating CORN (crop damage),[22]; Rate 250 g ai/ha,40
same,Post-emerge phytotoxicity rating RICE (crop damage),[23]; Rate 63 g ai/ha,0
same,Post-emerge phytotoxicity rating RICE (crop damage),[23]; Rate 250 g ai/ha,20
